Laboratory results: PubChem BioAssay AID1963984 (Molecular Pharmacology Branch, DTP, NCI, 2024)
pIC50: −log10 of the molar value.

Tested on: 233499-124-R-J3-PDC spheroids with HUVEC/MSC, viability
Assay: Anticancer human tumor 233499-124-R-J3-PDC patient-derived colon adenocarcinoma cell line growth inhibition [PI3K]
Conditions: for pIC50: curve of first compound; for viability, T/C: stronger effect = lower value
Procedure, shortened: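 Spheroid viability read-out. Co-cultures contained the tumor line plus HUVEC and human MSCs. Each agent was paired with a PI3K inhibitor (inavolisib, alpelisib, duvelisib, copanlisib) across half-log dilutions starting at clinical Cmax, or at 10 microM when Cmax was unknown.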

[1] = second compound 0.0316 µM, first compound 0.0316 µM
[2] = second compound 0.0316 µM, first compound 0.1 µM
[3] = second compound 0.0316 µM, first compound 0.316 µM
[4] = second compound 0.0316 µM, first compound 1 µM
[5] = second compound 0.0316 µM, first compound 3.16 µM
[6] = second compound 0.0316 µM, first compound 10 µM
[7] = second compound 0.1 µM, first compound 0.0316 µM
[8] = second compound 0.1 µM, first compound 0.1 µM
[9] = second compound 0.1 µM, first compound 0.316 µM
[10] = second compound 0.1 µM, first compound 1 µM
[11] = second compound 0.1 µM, first compound 3.16 µM
[12] = second compound 0.1 µM, first compound 10 µM
[13] = second compound 0.316 µM, first compound 0.0316 µM
[14] = second compound 0.316 µM, first compound 0.1 µM
[15] = second compound 0.316 µM, first compound 0.316 µM
[16] = second compound 0.316 µM, first compound 1 µM
[17] = second compound 0.316 µM, first compound 3.16 µM
[18] = second compound 0.316 µM, first compound 10 µM
[19] = second compound 1 µM, first compound 0.0316 µM
[20] = second compound 1 µM, first compound 0.1 µM
[21] = second compound 1 µM, first compound 0.316 µM
[22] = second compound 1 µM, first compound 1 µM
[23] = second compound 1 µM, first compound 3.16 µM
[24] = second compound 1 µM, first compound 10 µM
[25] = second compound 3.16 µM, first compound 0.0316 µM
[26] = second compound 3.16 µM, first compound 0.1 µM
[27] = second compound 3.16 µM, first compound 0.316 µM
[28] = second compound 3.16 µM, first compound 1 µM
[29] = second compound 3.16 µM, first compound 3.16 µM
[30] = second compound 3.16 µM, first compound 10 µM
[31] = second compound 10 µM, first compound 0.0316 µM
[32] = second compound 10 µM, first compound 0.1 µM
[33] = second compound 10 µM, first compound 0.316 µM
[34] = second compound 10 µM, first compound 1 µM
[35] = second compound 10 µM, first compound 3.16 µM
[36] = second compound 10 µM, first compound 10 µM
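Note: spheroids exposed to agents for seven days before readout.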
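Throughout, for viability, T/C: percent viability relative to DMSO vehicle control taken as 100%.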

## Cn1ncc(Cl)c1-c1cc(C(=O)NC(CN)Cc2cccc(F)c2)sc1Cl (centres undefined) + CC(Nc1ncnc2nc[nH]c12)c1cc2cccc(Cl)c2c(=O)n1-c1ccccc1
Second compound 0.0316 µM
  pIC50: 5.49
Second compound 0.1 µM
  pIC50: 5.33
Second compound 0.316 µM
  pIC50: 5.50
Second compound 1 µM
  pIC50: 5.39
Second compound 3.16 µM
  pIC50: 5.28
Second compound 10 µM
  pIC50: 5.28
[1]
  viability, T/C: 70.5%
[2]
  viability, T/C: 105%
[3]
  viability, T/C: 60.3%
[4]
  viability, T/C: 91.5%
[5]
  viability, T/C: 50.2%
[6]
  viability, T/C: 26.3%
[7]
  viability, T/C: 86.4%
[8]
  viability, T/C: 108%
[9]
  viability, T/C: 94.2%
[10]
  viability, T/C: 58.2%
[11]
  viability, T/C: 75.7%
[12]
  viability, T/C: 24.7%
[13]
  viability, T/C: 115%
[14]
  viability, T/C: 107%
[15]
  viability, T/C: 70.6%
[16]
  viability, T/C: 62.7%
[17]
  viability, T/C: 63.6%
[18]
  viability, T/C: 28.7%
[19]
  viability, T/C: 94.8%
[20]
  viability, T/C: 90.9%
[21]
  viability, T/C: 86.1%
[22]
  viability, T/C: 73.5%
[23]
  viability, T/C: 59.6%
[24]
  viability, T/C: 24.6%
[25]
  viability, T/C: 97%
[26]
  viability, T/C: 98.6%
[27]
  viability, T/C: 79.1%
[28]
  viability, T/C: 106%
[29]
  viability, T/C: 64.5%
[30]
  viability, T/C: 31.5%
[31]
  viability, T/C: 94.8%
[32]
  viability, T/C: 92%
[33]
  viability, T/C: 108%
[34]
  viability, T/C: 65.2%
[35]
  viability, T/C: 69.6%
[36]
  viability, T/C: 32.4%

## Cn1nccc1Nc1nccc(-c2ccn(C(CO)c3ccc(Cl)c(F)c3)c(=O)c2)n1 (centres undefined) + CC(Nc1ncnc2nc[nH]c12)c1cc2cccc(Cl)c2c(=O)n1-c1ccccc1
Second compound 0.0316 µM
  pIC50: < 5.00
Second compound 0.1 µM
  pIC50: < 5.00
Second compound 0.316 µM
  pIC50: < 5.00
Second compound 1 µM
  pIC50: < 5.00
Second compound 3.16 µM
  pIC50: < 5.00
Second compound 10 µM
  pIC50: < 5.00
[1]
  viability, T/C: 108%
[2]
  viability, T/C: 104%
[3]
  viability, T/C: 110%
[4]
  viability, T/C: 88%
[5]
  viability, T/C: 89%
[6]
  viability, T/C: 70.8%
[7]
  viability, T/C: 103%
[8]
  viability, T/C: 95.6%
[9]
  viability, T/C: 91.3%
[10]
  viability, T/C: 65.1%
[11]
  viability, T/C: 92.8%
[12]
  viability, T/C: 62.3%
[13]
  viability, T/C: 108%
[14]
  viability, T/C: 89.9%
[15]
  viability, T/C: 90.4%
[16]
  viability, T/C: 70.8%
[17]
  viability, T/C: 78.1%
[18]
  viability, T/C: 68.6%
[19]
  viability, T/C: 91.7%
[20]
  viability, T/C: 72.6%
[21]
  viability, T/C: 72.9%
[22]
  viability, T/C: 86.3%
[23]
  viability, T/C: 81.3%
[24]
  viability, T/C: 69%
[25]
  viability, T/C: 87%
[26]
  viability, T/C: 87.9%
[27]
  viability, T/C: 74.5%
[28]
  viability, T/C: 89.8%
[29]
  viability, T/C: 66.3%
[30]
  viability, T/C: 77.6%
[31]
  viability, T/C: 76.8%
[32]
  viability, T/C: 83.8%
[33]
  viability, T/C: 98%
[34]
  viability, T/C: 69.9%
[35]
  viability, T/C: 76.4%
[36]
  viability, T/C: 51.9%
